From patent publication US20100331183A1, “AGENT FOR IMPROVING GOOD RICE SEEDLING GROWTH” (COSMO OIL CO., LTD, priority 2008, published 2010)

Key:
[1] = tested on: rice seedlings; assay: Effect of improving the growth of rice seedlings - 1 (soil irrigation in seedling box, harvest 33 days from sowing); assay type: in vivo, rice (koshihikari variety)
Protocol: 450 g/pot of soil was placed in a seedling box (the area was 1/120,000×10 a). The soil used was a purchased volcanic ash soil (andosol). […] Fertilizer application was carried out using a liquid fertilizer, Hyponica, at a rate of 3 kg-N/10 a. […] After 29 days from sowing, additional fertilizer application was carried out using a liquid fertilizer, Hyponica, at a rate of 3 kg-N/10 a. After 33 days from sowing, the plant bodies were harvested, and the fresh weight (roots) and the tillering number were measured.

[2] = tested on: rice seedlings; assay: Effect of improving rice seedling growth - 2 (soil irrigation in seedling box, harvest 22 days from sowing); assay type: in vivo; details: for SPAD value (chlorophyll content) / Stem thickness: 5-aminolevulinic acid hydrochloride 600 mg/10 a and/or inabenfide 300 g/10 a, n = 15 to 17
Protocol: 450 g/pot of soil was placed in a seedling box (the area was 1/120,000×10 a). The soil used was a purchased volcanic ash soil (andosol). […] Fertilizer application was carried out using a liquid fertilizer, Hyponica, at a rate of 5 kg-N/10 a. […] The results for the fresh weight of roots and the tillering number under various conditions are presented in Table 6, and the results for the stem thickness and the chlorophyll content (SPAD value) under various conditions are presented in Table 7.

[3] = tested on: rice seedlings; assay: Verification of effect: treated seedlings transplanted into paddy field pot, harvest after three weeks; assay type: in vivo; details: 3 weeks after transplantation into paddy field pot; treated upon raising seedlings: 5-aminolevulinic acid hydrochloride 120 mg/10a and/or inabenfide 1200 g/10a; n = 3
Protocol: 450 g/pot of soil was placed in a seedling box (the area was 1/120,000×10 a). The soil used was a purchased volcanic ash soil (andosol). Rice seeds which had been subjected to brine grading using a brine having a specific gravity of 1.13, and had been germinated, were sowed at a rate of 15 seeds/pot, and the seeds were covered with soil at a depth of 1 to 2 cm (50 g/pot). Fertilizer application was carried out using a liquid fertilizer, Hyponica, at a rate of 5 kg-N/10 a. For each of the test zones (n=4), the soil was irrigated with combinations of inabenfide in an amount of treatment of 1,200 or 300 g/10 a, and 5-aminolevulinic acid hydrochloride in an amount of treatment of 600, 200 or 120 mg/10 a. After 22 days from sowing, the plant bodies were harvested, and the fresh weight (roots), the tillering number, the stem thickness and the chlorophyll content (SPAD value) were measured. The results for the fresh weight of roots and the tillering number under various conditions are presented in Table 6, and the results for the stem thickness and the chlorophyll content (SPAD value) under various conditions are presented in Table 7.
Seedlings were raised in the same manner as in Example 2. In regard to the treatment concentration upon raising seedlings, the treatment was carried out using 5-aminolevulinic acid hydrochloride at a concentration of 120 (mg/10 a) and inabenfide at a concentration of 1,200 (g/10 a). After the seedlings were raised, the roots of four seedlings were evenly cut to 2 cm, and the seedlings were transplanted into a pot simulating the state of paddy field. After three weeks from the transplantation into the pot simulating the state of paddy field, the plant bodies were harvested, and the dry weights of the aerial part and the root part, and the tillering number were measured. The various treatment conditions employed upon raising the seedlings, and the measurement values obtained after 3 weeks from the transplantation into paddy field pot are presented in Table 8.

[4] = 5-aminolevulinic acid hydrochloride 200 mg/10 a and/or trinexapac-ethyl 1.25 g/10 a
[5] = 5-aminolevulinic acid hydrochloride 200 mg/10 a and/or paclobutrazole 90 g/10 a
[6] = 5-aminolevulinic acid hydrochloride 200 mg/10 a and/or inabenfide 1200 g/10 a
[7] = inabenfide 300 g/10 a, 5-aminolevulinic acid hydrochloride 0
[8] = inabenfide 1200 g/10 a, 5-aminolevulinic acid hydrochloride 0
[9] = 5-aminolevulinic acid hydrochloride 200 mg/10 a and/or prohexadione calcium salt 15 g/10 a
[10] = 5-aminolevulinic acid hydrochloride 200 mg/10 a and/or uniconazole P 30 g/10 a
[11] = 5-aminolevulinic acid hydrochloride 200 mg/10 a and/or uniconazole P 30 g/10 a, n=4 zones
[12] = 5-aminolevulinic acid hydrochloride 120 mg/10 a, inabenfide 0
[13] = 5-aminolevulinic acid hydrochloride 200 mg/10 a, inabenfide 0
[14] = 5-aminolevulinic acid hydrochloride 600 mg/10 a, inabenfide 0

| Compound | Average tillering number per plant body [1, 4] | Fresh weight of roots [1, 4] [g] | Average tillering number per plant body [1, 5] | Fresh weight of roots [1, 5] [g] | Average tillering number per plant body [1, 6] | Fresh weight of roots [1, 6] [g] | SPAD value (chlorophyll content) [2] | Stem thickness [2] [cm] | Average tillering number per plant body [3] | Degree of sturdiness (dry weight/height for shoots) [3] [g/cm] | Dry weight of roots [3] [g] | Dry weight of shoots [3] [g] | Fresh weight of shoots [3] [g] | Fresh weight of roots [1, 9] [g] | Average tillering number per plant body [1, 10] | Fresh weight of roots [1, 11] [g] | further results |
| --- | --- | --- | --- | --- | --- | --- | --- | --- | --- | --- | --- | --- | --- | --- | --- | --- | --- |
| CCOC(=O)C1CC(=O)C(=C(O)C2CC2)C(=O)C1 (stereo not drawn) [Trinexapac-ethyl, ethyl=4-cyclopropyl-α-hydroxymethylene)-3,5-dioxocyclohexane carboxylate] | 0.00 | 0.23 | – | – | – | – | – | – | – | – | – | – | – | – | – | – | – |
| CC(C)(C)[C@@H](O)[C@@H](Cc1ccc(Cl)cc1)n1cncn1 (racemic) [Paclobutrazole, (2RS,3RS)-1-(4-chlorophenyl)-4,4-dimethyl-2-(1H-1,2,4-triazol-1-yl)pentan-3-ol] | – | – | 0.80 | 0.29 | – | – | – | – | – | – | – | – | – | – | – | – | – |
| O=C(Nc1ccc(Cl)cc1C(O)c1ccccc1)c1ccncc1 (stereo not drawn) [Inabenfide] | – | – | – | – | 0.19 | 0.34 | 29.23 | 0.415 | 8.0 | 0.060 | 1.1 | 3.6 | 15.8 | – | – | – | Average tillering number per plant body [2, 7]: 0.11; Fresh weight of roots [2, 7]: 0.35 g; Average tillering number per plant body [2, 8]: 0.41; Fresh weight of roots [2, 8]: 0.35 g |
| CCC(=O)C1=C([O-])CC(C(=O)[O-])CC1=O.[Ca+2] (stereo not drawn) [Prohexadione calcium salt, calcium 3-oxido-5-oxo-4-propionyl-3-cyclohexene carboxylate] | – | – | – | – | – | – | – | – | – | – | – | – | – | 0.32 | – | – | – |
| Cl.NCC(=O)CCC(=O)O [5-aminolevulinic acid hydrochloride] | 0.00 | 0.29 | 0.00 | 0.29 | 0.00 | 0.29 | 28.70 | 0.429 | 6.7 | 0.052 | 1.0 | 3.2 | 14.1 | 0.29 | 0.00 | 0.29 | Average tillering number per plant body [2, 12]: 0.03; Fresh weight of roots [2, 12]: 0.35 g; Average tillering number per plant body [2, 13]: 0.01; Fresh weight of roots [2, 13]: 0.36 g; Average tillering number per plant body [2, 14]: 0.00; Fresh weight of roots [2, 14]: 0.35 g |
| CC(C)(C)[C@H](O)/C(=C\c1ccc(Cl)cc1)n1cncn1 [Uniconazole P, (E)-(S)-1-(4-chlorophenyl)-4,4-dimethyl-2-(1H-1,2,4-triazol-1-yl)pent-1-en-3-ol] | – | – | – | – | – | – | – | – | – | – | – | – | – | – | 0.86 | 0.28 | – |
